Values quoted from earlier work as cited in PubChem BioAssay AID1259409 (Chemical Carcinogenesis Research Information System (CCRIS), 2018).

Tested on: rodent chemically induced tumor inhibition, incidence and multiplicity
Test: CCRIS tumor inhibitor studies

SMILES: CS(=O)(=O)Nc1ccc([N+](=O)[O-])cc1Oc1ccccc1
- tumour outcome (control, treated, inhibition, significance) (Carcinogen: 2-AMINO-1-METHYL-6-PHENYL-1H-IMIDAZO[4,5-B]PYRID INE [105650-23-5], Dose [Inhibitor]: 0, 400 PPM IN DIET FOR DURATION OF STUDY BEGINNING 1 D PRIOR TO CARCINOGEN TREATMENT (STUDY DURATION: 21 WK), Route [Inhibitor]: ORAL, Species: RAT, Strain/Sex: SPRAGUE-DAWLEY/FEMALE, Target Tissue: Type of Lesion: MAMMARY GLAND: DUCTAL CARCINOMA, Dose [Carcinogen]: 85 MG/KG BW 4X/WK FOR 2 WK): 30/42 (71%), 19/37 (51%), 28.2%, not significant
- tumour outcome (control, treated, inhibition, significance) (Carcinogen: 7, 12-DIMETHYLBENZ(A)ANTHRACENE [57-97-6], Dose [Inhibitor]: 5 MG/KG BW TWICE WEEKLY BEGINNING 3 D BEFORE FIRST CARCINOGEN DOSE FOR 13 WK (STUDY DURATION: 13 WK), Route [Inhibitor]: SUBCUTANEOUS, Species: RAT, Strain/Sex: SPRAGUE-DAWLEY/FEMALE, Target Tissue: Type of Lesion: MAMMARY GLAND: TUMOR, Dose [Carcinogen]: 10 MG THREE TIMES BETWEEN POSTNATAL DAYS 45-59): 23/24 (95.8%), 24/25 (96.0%), -0.2%, not significant
- tumour outcome (control, treated, inhibition, significance) (Carcinogen: AZOXYMETHANE (25843-45-2), Dose [Inhibitor]: 0, 0.04% 1 WK AFTER END OF DEXTRAN SODIUM SULFATE TREATMENT FOR 14 WKS (STUDY DURATION: 17 WKS), Route [Inhibitor]: DIET, Species: MOUSE, Strain/Sex: CD-1/FEMALE (10,10)/(10,10), Target Tissue: Type of Lesion: COLON: ADENOMA, Dose [Carcinogen]: 10 MG/KG ONCE, Promoter: DEXTRAN SODIUM SULFATE (9011-18-1)): 10/10 (100%), 6/10 (60%), 40%, p<0.05
- tumour outcome (control, treated, inhibition, significance) (Carcinogen: AZOXYMETHANE (25843-45-2), Dose [Inhibitor]: 0, 0.04% IN DIET 1 WK AFTER END OF DEXTRAN SODIUM SULFATE TREATMENT FOR 14 WKS (STUDY DURATION: 17 WKS), Route [Inhibitor]: DIET, Species: MOUSE, Strain/Sex: CD-1/FEMALE (10,10)/(10,10), Target Tissue: Type of Lesion: COLON: ADENOCARCINOMA, Dose [Carcinogen]: 10 MG/KG ONCE, Promoter: DEXTRAN SODIUM SULFATE (9011-18-1)): 10/10 (100%), 4/10 (40%), 60%, p<0.01
- tumour outcome (control, treated, inhibition, significance) (Carcinogen: AZOXYMETHANE, 25843-45-2, Dose [Inhibitor]: 0, 200 PPM IN DIET FOR DURATION OF STUDY BEGINNING 1D PRIOR TO CARCINOGEN TREATMENT (STUDY DURATION: 30 WK), Route [Inhibitor]: ORAL, Species: MOUSE, Strain/Sex: ICR/MALE, Target Tissue: Type of Lesion: COLON: CARCINOMA, Dose [Carcinogen]: 10 MG/KG BW IN SALINE 1/WK FOR 6 WK, Promoter: NONE USED): 14/28 (50%), 12/37 (32%), 36%, not significant
- tumour outcome (control, treated, inhibition, significance) (Carcinogen: AZOXYMETHANE, 25843-45-2, Dose [Inhibitor]: 0, 400 PPM IN DIET FOR DURATION OF STUDY BEGINNING 1 D PRIOR TO CARCINOGEN TREATMENT (STUDY DURATION: 30 WK), Route [Inhibitor]: ORAL, Species: MOUSE, Strain/Sex: ICR/MALE, Target Tissue: Type of Lesion: COLON: CARCINOMA, Dose [Carcinogen]: 10 MG/KG BW IN SALINE 1/WK FOR 6 WK, Promoter: NONE USED): 14/28 (50%), 10/40 (25%), 50%, p<0.05
- tumour outcome (control, treated, inhibition, significance) (Carcinogen: N-BUTYL-N-(4-HYDROXYBUTYL)NITROSAMINE, 3817-11-6, Dose [Inhibitor]: 0, 100 PPM IN DIET FOR 12 WK BEGINNING POST CARCINOGEN TREATMENT (STUDY DURATION: 20 WK), Route [Inhibitor]: ORAL, Species: RAT, Strain/Sex: F344/MALE, Target Tissue: Type of Lesion: URINARY BLADDER: TRANSITIONAL CELL CARCINOMA, Dose [Carcinogen]: 0.05% IN DRINKING WATER FOR 8 WK, Promoter: NONE USED): 18/20 (90%), 12/20 (60%), 33%, not significant
- tumour outcome (control, treated, inhibition, significance) (Carcinogen: N-BUTYL-N-(4-HYDROXYBUTYL)NITROSAMINE, 3817-11-6, Dose [Inhibitor]: 0, 200 PPM IN DIET FOR 12 WK BEGINNING POST CARCINOGEN TREATMENT (STUDY DURATION: 20 WK), Route [Inhibitor]: ORAL, Species: RAT, Strain/Sex: F344/MALE, Target Tissue: Type of Lesion: URINARY BLADDER: TRANSITIONAL CELL CARCINOMA, Dose [Carcinogen]: 0.05% IN DRINKING WATER FOR 8 WK, Promoter: NONE USED): 18/20 (90%), 8/16 (50%), 44%, p<0.05
- tumour outcome (control, treated, inhibition, significance) (Carcinogen: N-BUTYL-N-(4-HYDROXYBUTYL)NITROSAMINE, 3817-11-6, Dose [Inhibitor]: 0, 400 PPM IN DIET FOR 12 WK BEGINNING POST CARCINOGEN TREATMENT (STUDY DURATION: 20 WK), Route [Inhibitor]: ORAL, Species: RAT, Strain/Sex: F344/MALE, Target Tissue: Type of Lesion: URINARY BLADDER: TRANSITIONAL CELL CARCINOMA, Dose [Carcinogen]: 0.05% IN DRINKING WATER FOR 8 WK, Promoter: NONE USED): 18/20 (90%), 5/19 (26%), 71%, p<0.0002
- tumour outcome (control, treated, inhibition, significance) (Carcinogen: N-METHYL-N-NITROSOUREA [684-93-5], Dose [Inhibitor]: 5 MG/KG BW TWICE WEEKLY BEGINNING 5 D BEFORE FIRST CARCINOGEN DOSE FOR 27 WK (STUDY DURATION: 27 WK), Route [Inhibitor]: SUBCUTANEOUS, Species: RAT, Strain/Sex: SPRAGUE-DAWLEY/FEMALE, Target Tissue: Type of Lesion: MAMMARY GLAND: TUMOR, Dose [Carcinogen]: 50 MG/KG BW TWICE ON POSTNATAL DAYS 51 AND 58): 17/18 (94%), 10/18 (55.6%), 41%, p<0.05

SMILES: O=C1N[C@H](C(=O)O)CS1
- tumour outcome (control, treated, inhibition, significance) (Carcinogen: DIETHYLNITROSAMINE, 55-18-5, Dose [Inhibitor]: 0, 600 MG/KG BW BY INTRAPERITONEAL INJECTION ON DAYS 13, 14 AND 15 OF AGE THEN 4 G/KG DIET FROM 21 TO 161 DAYS OF AGE (S, Route [Inhibitor]: INTRAPERITONEAL, ORAL, Species: MOUSE, Strain/Sex: C3H/MALE, Target Tissue: Type of Lesion: LIVER: ADENOMA, Dose [Carcinogen]: 4 MG/KG IN TRICAPRYLIN ONCE ON DAY 15 OF AGE, Promoter: NONE USED): 100%, 100%, 0%, not significant

SMILES: O=CC(O)C(O)C(O)CO (centres undefined)
- tumour outcome (control, treated, inhibition, significance) (Carcinogen: 1,2-DIMETHYLHYDRAZINE, 540-73-8, Dose [Inhibitor]: 0, 10% IN FIBER-FREE DIET FOR 24 WK BEGINNING POST CARCINOGEN TREATMENT (STUDY DURATION: 32 WK), Route [Inhibitor]: ORAL, Species: RAT, Strain/Sex: SPRAGUE-DAWLEY/MALE, Target Tissue: Type of Lesion: COLON: ADENOCARCINOMA, Dose [Carcinogen]: 12 MG/KG BW 1/WK FOR 8 WK, Promoter: NONE USED): 73%, 53%, 27%, p=0.05

SMILES: C=C1C[C@H]2[C@@H]3CC[C@H](OC(C)=O)[C@@]3(C)CC[C@@H]2[C@@]2(C)CCC(=O)C=C12
- tumour outcome (control, treated, inhibition, significance) (Carcinogen: NONE USED, Dose [Inhibitor]: 0, 1 SILASTIC CAPSULE (1.5, 2.0, AND 15 MM IN INNER AND OUTER DIAMETERS AND LENGTH, RESPECTIVELY) REPLACED AFTER 2 MO IN, Route [Inhibitor]: SUBCUTANEOUS IMPLANT, Species: MOUSE, Strain/Sex: SHN/FEMALE, Target Tissue: Type of Lesion: MAMMARY GLAND: TUMOR, Promoter: NONE USED): 100%, 75%, 25%, p<0.01

SMILES: CC(C)=CCC1=C(O)[C@@](O)(CC=C(C)C)C(=O)C(C(=O)CC(C)C)=C1O
- tumour outcome (control, treated, inhibition, significance) (Carcinogen: 7,12-DIMETHYLBENZ[A]ANTHRACENE : 57-97-6, Dose [Inhibitor]: 0, 1 MG IN 100 µL ACETONE/DMSO (9:1) 2/WK FOR 17 WK APPLIED 30 MIN PRIOR TO EACH PROMOTER DOSE (STUDY DURATION: 18 WK), Route [Inhibitor]: DERMAL, Species: MOUSE, Strain/Sex: ICR/FEMALE, Target Tissue: Type of Lesion: SKIN: PAPILLOMA, Dose [Carcinogen]: 50 UG IN 100 µL ACETONE ONCE, Promoter: 12-O-TETRADECANOYLPHORBOL-13-ACETATE, 16561-29-8): 100%, 7%, 93%, not calculated
